This is an account of results in ChEMBL document CHEMBL1255477, “In vitro properties of BAL30072, a novel siderophore sulfactam with activity against multiresistant gram-negative bacilli” (Antimicrob Agents Chemother, 2010).

Molecules are shown by their SMILES. pIC50: −log10 of the molar value. In brackets after ≈: the same amount, converted by molar mass. Activity calls are given as the source filed them.

In assay [1] the test system is Enterobacter cloacae. Kind of assay: Antimicrobial activity against Enterobacter cloacae S4741B assessed as log reduction in colony count after 24 hrs. Type of assay: functional.
For assay [2], the system named is Pseudomonas aeruginosa. Put plainly: Microbicidal activity against Pseudomonas aeruginosa BA selected after 8 times MIC compound exposure. Format: functional.
The subject of assay [3] is Stenotrophomonas maltophilia. Put plainly: Antimicrobial activity against Stenotrophomonas maltophilia 1AC736 assessed as log reduction in colony count within 6 hrs selected after 1 to 16 times MIC compound exposure. Format: functional, organism-based.
Assay [4] can be described thus: Inhibition of Escherichia coli Penicillin-binding protein 3.
The subject of assay [5] is Acinetobacter baumannii. Kind of assay: Microbicidal activity against Acinetobacter baumannii HPA74510 selected after 4 times MIC compound exposure. Format: functional.
The test system of assay [6] is Acinetobacter baumannii. Put plainly: Antimicrobial activity against Acinetobacter baumannii HPA74510 assessed as highest concentration at which colonies reappeared. Type of assay: functional.
Assay [7] relates to Pseudomonas aeruginosa. Kind of assay: Antimicrobial activity against Pseudomonas aeruginosa HPA10586 assessed as log reduction in colony count within 6 hrs selected after 1 to 16 times MIC compound exposure. Type of assay: functional, organism-based.
Assay [8] in a line: Inhibition of beta-lactamase SHV-2.
Assay [9] deals with Enterobacter cloacae. Kind of assay: Antimicrobial activity against Enterobacter cloacae S9369 assessed as log reduction in colony count after 24 hrs. Format: functional.
In assay [10] the test system is Pseudomonas aeruginosa. Kind of assay: Microbicidal activity against Pseudomonas aeruginosa HPA10586 selected after 8 times MIC compound exposure. Format: functional.
Assay [11] concerns Pseudomonas aeruginosa. Kind of assay: Antimicrobial activity against Pseudomonas aeruginosa 527 assessed as appearance of colony at 4 times MIC concentration. Format: functional.
Assay [12] has as its system Pseudomonas aeruginosa. Put plainly: Antimicrobial activity against Pseudomonas aeruginosa 621 by broth dilution method. Type of assay: functional. On the technique in general: Broth dilution looks for growth in wells or tubes with falling amounts of substance.
In assay [13] the test system is Pseudomonas aeruginosa. Put plainly: Microbicidal activity against Pseudomonas aeruginosa (560546)9 M.P. selected after MIC of compound exposure. Type of assay: functional.
The test system of assay [14] is Escherichia coli. Put plainly: Antimicrobial activity against Escherichia coli W3110 by broth dilution method. Type of assay: functional.
For assay [15], the system named is Enterobacter cloacae. Put plainly: Antimicrobial activity against Enterobacter cloacae S9369 by broth dilution method. Type of assay: functional.
The test system of assay [16] is Pseudomonas aeruginosa. Put plainly: Antimicrobial activity against Pseudomonas aeruginosa 860 by broth dilution method. Format: functional.
In assay [17] the test system is Pseudomonas aeruginosa. Put plainly: Microbicidal activity against Pseudomonas aeruginosa 527 selected after 8 times MIC compound exposure. Type of assay: functional.
The subject of assay [18] is Acinetobacter baumannii. Kind of assay: Antimicrobial activity against Acinetobacter baumannii HPA74510 by broth dilution method. Type of assay: functional.
Assay [19] relates to Pseudomonas aeruginosa. Put plainly: Antimicrobial activity against Pseudomonas aeruginosa BA(C2-107) mutant assessed as doubling time. Format: functional.

One may read the MBC as the smallest concentration meeting the test's criterion for killing. The term pIC50 denotes the IC50 on a negative log10 scale, so that one unit is a factor of ten. Read a high pIC50 as a low IC50. As to `CC1(C)[C@H](NC(=O)/C(=N\OCc2cc(=O)c(O)cn2O)c2csc(N)n2)C(=O)N1OS(=O)(=O)O` (stereo in doubt), the FC in [1] and in [9] was 3 in each case. In addition, the MBC in [2] was determined as 4 mg/L (≈ 7.71 µM); in assay [5] it was 0.5 mg/L (≈ 0.964 µM); in [10] it was 8 mg/L (≈ 15.4 µM). For the same compound, the outcome in assay [3] and in assay [7] was Active. For the same compound, the pIC50 in assay [4] is 7.32; in assay [8] it was 5.47. The Activity in assay [6] came out at 4 mg/L.
A word on the MIC: it is the lowest concentration found to suppress growth. A high value points to a less susceptible organism. Regarding `C[C@@H](O)[C@H]1C(=O)N2C(C(=O)O)=C(S[C@@H]3CN[C@H](C(=O)N(C)C)C3)[C@H](C)[C@H]12` [MEROPENEM], the outcome in assay [11] was inactive. The MIC was determined as 0.125 mg/L (≈ 0.326 µM) in assay [12]; 0.25 mg/L (≈ 0.652 µM) in assay [14]; 4 mg/L (≈ 10.4 µM) in [15]; 4 mg/L (≈ 10.4 µM) in [16]; 1 mg/L (≈ 2.61 µM) in assay [18]. Further, the MBC in [13] stood at 2 mg/L; in [17], 32 mg/L (≈ 83.4 µM). Besides, the Time in assay [19] is 4.1 h.
